Reference: US20240409557A1, “5,6-FUSED AND 6,6-FUSED BICYCLIC ALCOHOLS AND ETHERS AND COMPOSITIONS FOR USE AS 15-PROSTAGLANDIN DEHYDROGENASE MODULATORS” (AMGEN INC., priority 2023, published 2024)
pIC50: −log10 of the molar value.

Experiments:
15-PGDH in A549 cells = target: T1, 15-PGDH in A549 cells (Homo sapiens, UniProt P15428); experiment: A549 cellular 15-PGDH assay (PGE2 accumulation, HTRF); assay type: cell-based; conditions: interleukin-stimulated, inhibitor 24 hrs, PGE2 by competitive HTRF, read-out: A549 Cell Assay IC50
T1 construct: endogenous in cells; host or cells: A549
T1 sequence (P15428 1-266): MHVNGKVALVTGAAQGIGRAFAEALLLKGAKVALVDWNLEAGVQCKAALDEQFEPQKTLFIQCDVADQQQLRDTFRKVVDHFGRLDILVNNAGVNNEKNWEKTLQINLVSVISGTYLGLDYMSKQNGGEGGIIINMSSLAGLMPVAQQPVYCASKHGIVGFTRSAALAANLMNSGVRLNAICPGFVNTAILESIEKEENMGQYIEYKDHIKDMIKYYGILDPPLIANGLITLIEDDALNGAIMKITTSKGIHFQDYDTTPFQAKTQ
Excerpt: This assay was used for the quantification of IL-13 induced Native Prostaglandin E2 (PGE2) produced by A549 cells (epithelial cells from lung carcinoma) in cell culture supernatants. […] PGE2 was detected in a competitive HTRF assay by using anti PGE2 antibody labeled with Europium cryptate, and PGE2 labeled with […]. The PGE2 present in the sample competes with the binding between the two HTRF detection solutions (reagents) and thereby prevents FRET from occurring. The specific signal is inversely proportional to the PGE2 concentration. From this binding data, IC50 values were calculated.

[1] = target: T2, human recombinant 15-PGDH (Homo sapiens, UniProt P15428); experiment: Recombinant 15-PGDH enzymatic inhibition assay (PGDH-Lumi, NADH signal); assay type: biochemical; conditions: recombinant 15-PGDH; 15 min pre-incubation, 60 min reaction with PGE2 and NAD+, NADH signal
T2 sequence (P15428 1-266): T1 sequence (P15428 1-266)
Procedure: These assays measured 15-PGDH enzymatic activity by quantifying the amount of NADH produced during a 60-minute reaction initiated by the addition of PGE2 and NAD+. Under the conditions of these experiments, the increase of NADH signal upon oxidation of PGE2 and reduction of NAD+ was linearly proportional to 15-PGDH enzymatic activity. The recombinant human, mouse, rat and dog 15-PGDH enzymatic assays were performed in a 25 μL volume of reaction buffer containing 50 mM Tris, pH 7.5, 0.01% Tween-20 and […] DTT in a 384-well microtiter plate. In concentration-response experiments with tested compounds, 22 concentrations from 2-fold serial dilutions in DMSO were pre-incubated with 15-PGDH for 15 minutes at room temperature. Then, PGE2 and β-NAD+ were added to initiate the 15-PGDH reaction. After 60 minutes at room temperature, the reaction was quenched and NADH signal was measured using a microtiter plate reader.
The following data (Table 27-1) provides the IC50 in μM of each compound for inhibiting enzymatic activity of the recombinant 15-PGDH in the assay described above.

pIC50 (15-PGDH in A549 cells)	pIC50 [1]	Structure (SMILES)
8.31	8.74	C[C@@H](O)c1cc2c(-c3ccnn3C)cc(-c3cnc4nn(C)cc4c3)nc2s1 (single isomer, unassigned) [Compound B6R]
7.57	8.47	C[C@@H](O)c1cc2c(C3CC3)cc(-c3cnc4nn(C)cc4c3)nc2s1 (single isomer, unassigned) [Compound B11R]
9.42	9.61	Cn1cc2cc(-c3ccc4cc([C@H](O)[C@@H]5CCOC5)sc4n3)cnc2n1 (single isomer, unassigned) [Compound B19RR]
8.75	7.91	CCC[C@H](O)c1cc2ccc(-c3cnc4nn(C)cc4c3)nc2s1 (single isomer, unassigned) [Compound B27S]
9.80	9.37	Cn1cc2cc(-c3ccc4cc([C@H](O)C5COC5)sc4n3)cnc2n1 (single isomer, unassigned) [Compound B28R]
8.02	7.91	Cn1cc2cc(-c3ccc4cc([C@@H](O)C5COC5)sc4n3)cnc2n1 (single isomer, unassigned) [Compound B28S]
9.13	9.68	COCC[C@@H](O)c1cc2ccc(-c3cnc4nn(C)cc4c3)nc2s1 (single isomer, unassigned) [Compound B29R]
8.51	7.98	COCC[C@H](O)c1cc2ccc(-c3cnc4nn(C)cc4c3)nc2s1 (single isomer, unassigned) [Compound B29S]
8.75	9.40	Cc1cn2cc(-c3ccc4cc([C@H](O)C5CC(F)(F)C5)sc4n3)ccc2n1 (single isomer, unassigned) [Compound B48R]
9.14	9.59	Cn1cnc(-c2ccc3cc([C@H](O)C4CC(F)(F)C4)sc3n2)cc1=O (single isomer, unassigned) [Compound B49R]
9.28	9.46	Cn1ccc2cc(-c3ccc4cc([C@H](O)C5CC(F)(F)C5)sc4n3)ccc2c1=O (single isomer, unassigned) [Compound B50R]
	8.46	O[C@]1(c2cc3cnc(-c4cnc5nncn5c4)nc3s2)C[C@H](C(F)(F)F)C1 [Compound C129C, cis-1-(2-([1,2,4]triazolo[4,3-a]pyrimidin-6-yl)thieno[2,3-d]pyrimidin-6-yl)-3-(trifluoromethyl)cyclobutanol]

The remaining lines, values behind:

Structure (SMILES)	pIC50 (15-PGDH in A549 cells)	pIC50 [1]
Cn1cc2cc(-c3ccc4cc(C(O)[C@H]5CCOC5)sc4n3)cnc2n1 (single isomer, unassigned) [B19(RS)S]	8.99	9.20
C[C@H](O)c1cc2c(-c3ccnn3C)cc(-c3cnc4nn(C)cc4c3)nc2s1 (single isomer, unassigned) [Compound B6S]	6.99	7.05
Cn1cc2cc(-c3cc(C4CC4)c4cc(C(O)C5CCC5)sc4n3)cnc2n1 (single isomer, unassigned) [Compound B8, cyclobutyl(4-cyclopropyl-6-(2-methyl-2H-pyrazolo[3,4-b]pyridin-5-yl)thieno[2,3-b]pyridin-2-yl)methanol]	9.04	9.41
CC[C@@H](O)c1cc2c(C3CC3)cc(-c3cnc4nn(C)cc4c3)nc2s1 (single isomer, unassigned) [Compound B13R]	8.49	9.24
Cn1cc2cc(-c3ccc4cc([C@H](O)C5CC5)sc4n3)cnc2n1 (single isomer, unassigned) [Compound B16R]	9.83	9.49
Cn1cc2cc(-c3ccc4cc([C@@H](O)C5CC5)sc4n3)cnc2n1 (single isomer, unassigned) [Compound B16S]	8.02	7.57
Cn1cc2cc(-c3ccc4cc([C@@H](O)[C@@H]5CCOC5)sc4n3)cnc2n1 (single isomer, unassigned) [Compound B19SR]	8.45	8.73
Cn1cc2cc(-c3ccc4cc([C@H](O)C(F)(F)F)sc4n3)cnc2n1 (single isomer, unassigned) [Compound B23R]	9.41	9.37
Cn1cc2cc(-c3ccc4cc([C@@H](O)C(F)(F)F)sc4n3)cnc2n1 (single isomer, unassigned) [Compound B23S]	7.72	6.92
CC(C)[C@@H](O)c1cc2ccc(-c3cnc4nn(C)cc4c3)nc2s1 (single isomer, unassigned) [Compound B24R]	9.21	9.59
CCC[C@@H](O)c1cc2ccc(-c3cnc4nn(C)cc4c3)nc2s1 (single isomer, unassigned) [Compound B27R]	9.14	9.59
Cn1cc2cc(-c3ccc4cc([C@@H](O)C5CC(F)(F)C5)sc4n3)cnc2n1 (single isomer, unassigned) [Compound B30S]	9.39	9.46
Cn1cc2cc(-c3ccc4cc([C@H](O)C5CCC(F)(F)CC5)sc4n3)cnc2n1 (single isomer, unassigned) [Compound B31R]	9.28	9.69
Cn1ncc2cc(-c3ccc4cc([C@H](O)C5CCOCC5)sc4n3)ccc21 (single isomer, unassigned) [Compound B34R]	7.40	7.91
Cn1ncc2cc(-c3ccc4cc([C@H](O)C5CCOCC5)sc4n3)cnc21 (single isomer, unassigned) [Compound B35R]	7.74	8.96
O[C@@H](c1cc2ccc(-c3ccc4[nH]ncc4c3)nc2s1)C1CCOCC1 (single isomer, unassigned) [Compound B37R]	7.21	8.06
Cn1nc2cc(-c3ccc4cc([C@H](O)C5CCOCC5)sc4n3)cnc2n1 (single isomer, unassigned) [Compound B39R]	8.63	9.37
O[C@@H](c1cc2ccc(-c3ccc4oncc4c3)nc2s1)C1CCOCC1 (single isomer, unassigned) [Compound B43R]	6.71	7.86
O[C@@H](c1cc2ccc(-c3cnc4[nH]nnc4c3)nc2s1)C1CCOCC1 (single isomer, unassigned) [Compound B44R]	8.58	9.33
Cc1nc2cc(-c3ccc4cc([C@H](O)C5CC(F)(F)C5)sc4n3)ccc2o1 (single isomer, unassigned) [Compound B46R]	9.16	9.56
Cc1nc2cc(-c3ccc4cc([C@@H](O)C5CC(F)(F)C5)sc4n3)ccc2o1 (single isomer, unassigned) [Compound B46S]	7.76	8.68
O[C@@H](c1cc2ccc(-c3cnc4[nH]ncc4c3)nc2s1)C1CC(F)(F)C1 (single isomer, unassigned) [Compound B47R]	9.44	9.68
O[C@H](c1cc2ccc(-c3cnc4[nH]ncc4c3)nc2s1)C1CC(F)(F)C1 (single isomer, unassigned) [Compound B47S]	8.71	9.12
Cn1ccc2cc(-c3ccc4cc([C@@H](O)C5CC(F)(F)C5)sc4n3)ccc2c1=O (single isomer, unassigned) [Compound B50S]	8.10	8.73
Cc1nc2ccc(-c3ccc4cc([C@H](O)C5CC(F)(F)C5)sc4n3)cc2o1 (single isomer, unassigned) [Compound B51R]	9.45	9.79
